Experimental data published in patent publication US10233200B2, “Organomodified monosilyl compound, its preparation and applications thereof” (Momentive Performance Materials Inc., priority 2017, dated 2019).

Experiments:
[1] = Spreading of a 10 μL droplet of surfactant solution on polystyrene Petri dishes; type: physicochemical; conditions: 10 μL droplet on polystyrene, after 30 seconds, 22 to 25° C., RH 50-70%
Protocol: Spreading was determined by applying a 10 μL droplet, of surfactant solution to polystyrene Petri dishes (Fisher Scientific) and measuring the spread diameter (mm) after 30 seconds, at a relative humidity between 50 and 70% (at 22 to 25° C.). The solution was applied with an automatic pipette to provide droplets of reproducible volume. Deionized water that was further purified with a Millipore filtration system was used to prepare the surfactant solutions.

canola leaf = test: Uptake of [C14]-2,4-D DMA salt into canola leaf; type: in vivo; conditions: no adjuvant compound (0 % wt/vol), 2,4-D alone
Protocol: The uptake of [C^14]-2,4-dichlorophenoxyacetic acid, dimethylamine salt (2,4-D DMA salt) (1% a.e./100 L/ha) was determined in canola at 2 HAT and 24 HAT (Hours After Treatment) according to the method described by Lui, in Pro. 18th Asian-Pacific Weed Sci. Soc. Conf., pp. 561-566. Liu, Z Q; 2001.

Molecule	Spread Diameter ([1]; 0.05 weight % compound) [mm]	Spread Diameter ([1]; 0.1 weight % compound) [mm]	Spread Diameter ([1]; 0.2 weight % compound) [mm]	Uptake % (2 HAT) (canola leaf; 2 HAT) [e %]	Uptake % (24 HAT) (canola leaf; 24 HAT) [a %]
(H3C)3CCH2CH2—Si(CH3)2—CH2CH2CH2—O—CH2CH(OH)CH2N^+(CH3)2—CH2CH2CH2OH [Ex. 8, (H3C)3CCH2CH2—Si(CH3)2—CH2CH2CH2—O—CH2CH(OH)CH2N^+(CH3)2—CH2CH2CH2OH [(CH2OH)2(CH3)C—COO^−]]	10	21	33		
CNC.O=C(O)COc1ccc(Cl)cc1Cl [2,4-D alone, 2,4-dichlorophenoxyacetic acid, dimethylamine salt]				12.1	70.2
